Data: PubChem BioAssay (NCI)
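Grown in 96-well plates, cells were treated for 48 hours with each compound at five concentrations. Insufficient inhibition: endpoint recorded as highest concentration tested. At the TGI there is no net growth.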

Tests used:
Test in all cases: DTP human tumour cell line panel, 48 h
SW-620 colon = system: SW-620 colon
BT-549 breast = system: BT-549 breast
ACHN renal = system: ACHN renal
OVCAR-4 ovarian = system: OVCAR-4 ovarian
K-562 leukemia = system: K-562 leukemia
MOLT-4 leukemia = system: MOLT-4 leukemia
UACC-257 melanoma = system: UACC-257 melanoma
EKVX NSCLC = system: EKVX NSCLC
DU-145 prostate = system: DU-145 prostate
NCI-H226 lung = system: NCI-H226 lung
MCF7 breast = system: MCF7 breast
SK-MEL-5 melanoma = system: SK-MEL-5 melanoma
SR leukemia = system: SR leukemia
KM12 colon = system: KM12 colon
HCC-2998 colon = system: HCC-2998 colon
M14 melanoma = system: M14 melanoma
A498 renal = system: A498 renal
SNB-75 CNS = system: SNB-75 CNS
U251 CNS = system: U251 CNS
LOX IMVI melanoma = system: LOX IMVI melanoma
COLO 205 colon = system: COLO 205 colon
HL-60(TB) leukemia = system: HL-60(TB) leukemia
MDA-MB-435 = system: MDA-MB-435
NCI-H460 lung = system: NCI-H460 lung
SF-268 CNS = system: SF-268 CNS
NCI-H23 lung = system: NCI-H23 lung
MALME-3M melanoma = system: MALME-3M melanoma
HCT-15 colon = system: HCT-15 colon
SNB-19 CNS = system: SNB-19 CNS
HS 578T breast = system: HS 578T breast
OVCAR-5 ovarian = system: OVCAR-5 ovarian
SK-MEL-28 melanoma = system: SK-MEL-28 melanoma
CAKI-1 renal = system: CAKI-1 renal
HOP-62 NSCLC = system: HOP-62 NSCLC
SN12C renal = system: SN12C renal
A549 NSCLC = system: A549 NSCLC
TK-10 renal = system: TK-10 renal
RXF 393 renal = system: RXF 393 renal
HCT-116 colon = system: HCT-116 colon
NCI/ADR-RES ovarian = system: NCI/ADR-RES ovarian
SK-OV-3 ovarian = system: SK-OV-3 ovarian
786-0 renal = system: 786-0 renal
RPMI-8226 leukemia = system: RPMI-8226 leukemia
NCI-H522 lung = system: NCI-H522 lung
OVCAR-3 ovarian = system: OVCAR-3 ovarian
IGROV1 ovarian = system: IGROV1 ovarian
PC-3 prostate = system: PC-3 prostate
CCRF-CEM leukemia = system: CCRF-CEM leukemia
HT29 colon = system: HT29 colon
UACC-62 melanoma = system: UACC-62 melanoma
MDA-MB-231 breast = system: MDA-MB-231 breast
SF-539 CNS = system: SF-539 CNS
T-47D breast = system: T-47D breast
OVCAR-8 ovarian = system: OVCAR-8 ovarian
UO-31 renal = system: UO-31 renal
MDA-N = system: MDA-N
HOP-92 NSCLC = system: HOP-92 NSCLC
SF-295 CNS = system: SF-295 CNS
DLD-1 colon = system: DLD-1 colon
DMS 114 small cell lung = system: DMS 114 small cell lung
M19-MEL melanoma = system: M19-MEL melanoma
SK-MEL-2 melanoma = system: SK-MEL-2 melanoma
SNB-78 CNS = system: SNB-78 CNS

Measured: TGI

CCOP(=O)(OCC)/C(C#N)=C/c1c(C)[nH]c2ccccc12
47.8 µM: UO-31 renal
not listed: DLD-1 colon | DMS 114 small cell lung | M19-MEL melanoma | SK-MEL-2 melanoma | SNB-78 CNS
> 100 µM: all other assays above

O=c1[nH]c(/C=C(\O)c2ccncc2)nc2ccccc12
not listed: BT-549 breast | DU-145 prostate | MCF7 breast | KM12 colon | LOX IMVI melanoma | MDA-MB-435 | HS 578T breast | RXF 393 renal | NCI/ADR-RES ovarian | PC-3 prostate | MDA-MB-231 breast | SF-539 CNS | T-47D breast | MDA-N | HOP-92 NSCLC
> 100 µM: all other assays above
